Results: patent US4130559A, “Method for the preparation of 6-aminopenicillinic acid derivatives” (priority 1977, dated 1978)
In brackets after ≈: the same amount, converted by molar mass. Where two headings read alike, the source gives them in different places.

Tests used:
[1] = Acid resistance (half-life period); type: physicochemical
Protocol: (§1) All compounds of this group were prepared in the form of sodium salts. Bactericidal activity, degree of hydrolysis with staphylococc penicillinase and acid resistance of the penicillins were determined.

[2] = system: Staph. albus; assay: Minimal bacteriostatic concentration; type: cell-based; settings: sodium salts
Protocol: as §1

[3] = system: Ps.aeruginosa; assay: Minimal bacteriostatic concentration; type: cell-based; settings: Pseudomonas aeruginosa, sodium salts
Protocol: as §1

[4] = system: Prot.vulgaris; assay: Minimal bacteriostatic concentration; type: cell-based; settings: Proteus vulgaris, sodium salts
Protocol: as §1

[5] = system: Staph. aureus 209p (adapted to benzylpenicillin); assay: Minimal bacteriostatic concentration; type: cell-based; settings: Staphylococcus aureus, read-out: Minimal Bacteriostatic Concentration
Protocol: as §1

[6] = system: Strept. pyrogenes; assay: Minimal bacteriostatic concentration; type: cell-based; settings: sodium salts
Protocol: as §1

[7] = system: E.coli O-55; assay: Minimal bacteriostatic concentration; type: cell-based; settings: Escherichia coli
Protocol: as §1

[8] = system: Vibrion Metschnicoff; assay: Minimal bacteriostatic concentration; type: cell-based; settings: read-out: Minimal Bacteriostatic Concentration
Protocol: as §1

[9] = system: B.Subtitis ATCC6633; assay: Minimal bacteriostatic concentration; type: cell-based; settings: sodium salts
Protocol: as §1

[10] = system: E.typhi; assay: Minimal bacteriostatic concentration; type: cell-based; settings: read-out: Minimal Bacteriostatic Concentration
Protocol: as §1

[11] = system: Sh.dysenteriae Flexneri; assay: Minimal bacteriostatic concentration; type: cell-based; settings: Shigella dysenteriae, read-out: Minimal Bacteriostatic Concentration
Protocol: as §1

[12] = system: Myco smegmatis; assay: Minimal bacteriostatic concentration; type: cell-based; settings: sodium salts
Protocol: as §1

[13] = system: Staph. aureus 209p; assay: Minimal bacteriostatic concentration; type: cell-based; settings: Staphylococcus aureus, sodium salts
Protocol: as §1

[14] = target: T1, staphylococc penicillinase (Staphylococcus aureus, UniProt P00807); assay: Hydrolysis/inactivation by staphylococc penicillinase; type: biochemical; settings: for Quantity of inactivated units of compounds under the action of 1 unit of staphylococc penicillinase: Table 5
Protocol: as §1
The substitution of propoxy radical for iso-radical in this position is not accompanied by areduction of penicillin stability against penicillinase which is not observed in the orto- and para-positions. During the subsequent hours of inactivation the rate of hydrolysis of penicillins slightly increases. However, even when observed in dynamics, their stability against penicillianase still persists during 4-hour-inactivation.

[15] = in vivo; settings: mouse, iv
[16] = target: T1, staphylococc penicillinase; settings: cited from earlier work
[17] = acid ph 1.3, pH 1.3, under conditions of our experiments, read-out: half-life period
[18] = O55, read-out: Minimal Bacteriostatic Concentration
[19] = Vibrion Metschnicoff, sodium salts
[20] = O55, E.coli O-55, sodium salts, read-out: Minimal Bacteriostatic Concentration
[21] = acid ph 1.3, Temperature 37° C, pH 1.3, Table 1, cyclopentyl series, read-out: τ1/2 half-life period (acid resistance)

T1 sequence (P00807 25-281): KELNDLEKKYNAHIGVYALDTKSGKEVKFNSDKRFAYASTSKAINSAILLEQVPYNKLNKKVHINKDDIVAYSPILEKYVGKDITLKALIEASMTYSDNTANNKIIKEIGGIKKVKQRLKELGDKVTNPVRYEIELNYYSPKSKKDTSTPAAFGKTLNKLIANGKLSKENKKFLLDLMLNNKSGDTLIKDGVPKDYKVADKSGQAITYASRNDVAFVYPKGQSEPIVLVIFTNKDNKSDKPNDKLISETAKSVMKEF

SMILES	half-life [1, 17] [min]	MIC [2] [µg/mL]	MIC [3] [µg/mL]	MIC [4] [µg/mL]	MIC [5] [µg/mL]	MIC [6] [µg/mL]	MIC [7, 18] [µg/mL]	MIC [8, 19] [µg/mL]	MIC [9] [µg/mL]	MIC [10] [µg/mL]	MIC [11] [µg/mL]	MIC [12] [µg/mL]	MIC [13] [µg/mL]	MIC [7, 20] [µg/mL]	MIC [8] [µg/mL]	Quantity of inactivated units of compounds under the action of 1 unit of staphylococc penicillinase [14] [units]	stability against penicillinase ([14]; during the first hour after inactivation, 60 min) [%]	MTD [15] [mg/kg]	half-life [1, 21] [min]	penicillinase resistance (background statement) [16]
CC1(C)S[C@@H]2[C@H](NC(=O)Cc3ccccc3)C(=O)N2[C@H]1C(=O)O [Benzyl Penicillin, benzylpenicillin, reference compound]	2.1	0.006	> 500	1.56	> 500	0.003	31.2 (≈ 93.3 µM)	0.78	0.048	0.39 (≈ 1.17 µM)	3.12 (≈ 9.33 µM)	> 500	0.012							
CC1(C)SC2C(NC(=O)C3(c4ccccc4)CCCC3)C(=O)N2C1C(=O)O (centres unmarked) [Compound I (Table 1), 1-Phenylcyclopentyl-1-Penicillin]	26	0.048	> 500	250	> 500	0.012			0.09	62.5 (≈ 161 µM)	125 (≈ 322 µM)	> 500	0.048	500	0.24 (≈ 0.618 µM)	0	100	500		
COc1ccccc1C1(C(=O)NC2C(=O)N3C2SC(C)(C)C3C(=O)O)CCCC1 (centres unmarked) [Compound II (Table 1)]		0.9	> 500	500	> 500	0.78			3.9	62.5 (≈ 149 µM)	62.5 (≈ 149 µM)	> 500	0.9	250		28.8		2000	187	
CCOc1ccccc1C1(C(=O)NC2C(=O)N3C2SC(C)(C)C3C(=O)O)CCCC1 (centres unmarked) [Compound III (Table 1)]		0.39	> 500	500	> 500	0.78		0.9	7.8	62.5 (≈ 144 µM)	125 (≈ 289 µM)	> 500	0.78	500		20.5		1000	102	
CCCOc1ccccc1C1(C(=O)NC2C(=O)N3C2SC(C)(C)C3C(=O)O)CCCC1 (centres unmarked) [Compound IV (Table 1)]		0.39	> 500	500	> 500	0.39		0.9	15.6	62.5 (≈ 140 µM)	125 (≈ 280 µM)	> 500	0.19	> 125		20.45		1500	14.9	
CCCOc1cccc(C2(C(=O)NC3C(=O)N4C3SC(C)(C)C4C(=O)O)CCCC2)c1 (centres unmarked) [Compound IX (Table 1), 1-(m-propoxyphenyl)Cyclopentyl-1-Penicillin]		0.19	> 500	125	> 500	0.39	250 (≈ 560 µM)	3.9	0.9	15.6 (≈ 34.9 µM)	62.5 (≈ 140 µM)	> 500	0.39			10.6		1500	222	
CC(C)Oc1ccccc1C1(C(=O)NC2C(=O)N3C2SC(C)(C)C3C(=O)O)CCCC1 (centres unmarked) [Compound V (Table 1)]		0.39	> 500	500	> 500	0.78		0.9	7.8	125 (≈ 280 µM)	250 (≈ 560 µM)	> 500	0.39	500		12.0		1000 to 1500	10.3	
CCCCOc1ccccc1C1(C(=O)NC2C(=O)N3C2SC(C)(C)C3C(=O)O)CCCC1 (centres unmarked) [Compound VI (Table 1), 1-(o-Butoxyphenyl)Cyclopentyl-1-Pencillin]		0.19	> 500	500	> 500	0.39		1.56	15.6	125 (≈ 271 µM)	250 (≈ 543 µM)	> 500	0.39	500		16.6		1000	14.8	
COc1cccc(C2(C(=O)NC3C(=O)N4C3SC(C)(C)C4C(=O)O)CCCC2)c1 (centres unmarked) [Compound VII (Table 1)]		0.39	> 500	125	> 500	0.39			1.56		125 (≈ 299 µM)	> 500	0.39	250		14.2		2500	288	
CCOc1cccc(C2(C(=O)NC3C(=O)N4C3SC(C)(C)C4C(=O)O)CCCC2)c1 (centres unmarked) [Compound VIII (Table 1)]		0.19	> 500	250	> 500	0.39	250 (≈ 578 µM)	3.9	0.9	31.2 (≈ 72.1 µM)	125 (≈ 289 µM)	> 500	0.39			10.0		1500	189	
CC(C)Oc1cccc(C2(C(=O)NC3C(=O)N4C3SC(C)(C)C4C(=O)O)CCCC2)c1 (centres unmarked) [Compound X (Table 1)]		0.19	> 500	250	> 500	0.19	250 (≈ 560 µM)	3.9	7.8	15.6 (≈ 34.9 µM)	62.5 (≈ 140 µM)	> 500	0.39			27.5		1500	25.9	
CCCCOc1ccc(C2(C(=O)NC3C(=O)N4C3SC(C)(C)C4C(=O)O)CCCC2)cc1 (centres unmarked) [Compound XVI (Table 1)]		0.19	> 500	125		0.048	125 (≈ 271 µM)	0.48	0.24	15.6 (≈ 33.9 µM)	62.5 (≈ 136 µM)	> 500	0.39			23.3		1500	43.2	
COc1cccc(OC)c1C(=O)N[C@@H]1C(=O)N2[C@@H]1SC(C)(C)[C@@H]2C(=O)O [methycillin]																				penicillinase resistant
